# Data reported in US20210214376A1, “HALOGENATED BIOTIN-MODIFIED DIMER AND USE THEREOF” (The University of Tokyo, priority 2018, published 2021).
# What was measured:
# Herceptin-V2122 = assay: Binding assay of astatine-labeled Psyche B and Herceptin-Cupid using Ni-NTA magnetic beads; settings: Herceptin-V2122 solution versus PBS control; 5.8 kBq; FIG. 5
# Protocol: In order to confirm whether or not astatine-labeled Psyche B has binding ability to Cupid, a binding assay was carried out using Herceptin-Cupid and Ni-NTA magnetic beads (manufactured by Thermo) that bind to a 6×His-tag added to Herceptin-Cupid. Psyche B-At211 used herein was prepared according to Example 1(4), whereas Herceptin-Cupid was prepared according to the method described in Japanese Patent Application 2018-247363, as described above. The specific assay method is as follows.
# That is, 4 μL of Herceptin-V2122 solution or PBS used as a control was dispensed into a 1.5-mL tube. Into the tube, 10 μL (corresponding to 5.8 kBq) of Psyche-At211 was added, and the obtained mixture was then incubated at room temperature for 5 minutes. Subsequently, 10 μL of Ni-NTA magnetic beads equilibrated with PBS were added to the reaction mixture, and the thus obtained mixture was then incubated at room temperature for 5 minutes. Thereafter, the beads were precipitated and immobilized by using a magnet, and a supernatant was then recovered. The supernatant was washed with 100 μL of PBS twice, and the radiation dose was then counted using a gamma counter. The results are shown in the graph of FIG. 5.
# [1] = test system: HER2-positive SKOV3 cells; assay: Binding of astatine-labeled Psyche B to Herceptin-V2122 pre-bound to SKOV3 cells; type: cell-based; settings: 10 kBq/tube; Herceptin-V2122 versus negative control CEA-V2122; FIG. 6
# Protocol: (§1) Whether or not astatine-labeled Psyche B has binding ability to Herceptin-V2122, which had previously been bound to HER2-positive SKOV3 cells, was confirmed. As a negative control, CEA-V2122 was used. Psyche B-At211 used herein was prepared according to Example 1(4), whereas Herceptin-V2122 and CEA-V2122 were prepared according to the method described in Japanese Patent Application 2018-247363, as described above. The specific assay method is as follows.
# (§2) Four 1.5-mL tubes were prepared, and the cells were then dispersed into each tube to a cell density of 0.875×10^6 cells/tube. Herceptin-V2122 was added to two tubes to result in N=2, whereas CEA-V2122 was added to the remaining two tubes. Subsequently, incubation was carried out on ice for 1 hour, and astatine-labeled Psyche B was then added to the resultant to 10 kBq/tube. Thereafter, the obtained mixture was incubated at room temperature for 30 minutes, while shaking. Finally, the cells were precipitated by centrifugation, and a supernatant was then recovered. The supernatant was washed with PBS twice, and the radiation dose was then counted using a gamma counter. The results are shown in the graph of FIG. 6.
# CEA-V2122 [2] = molecular target: T1, CEA-V2122 (Streptomyces avidinii, UniProt P22629, Y46S/N47D/S51D/S69N/N73G/Y107S/R108K/E125D/R127K/E140N); assay: Analysis of affinity of CEA-V2122 for Psyche B-iodine and Psyche P-iodine (Biacore T200, Single-Cycle Kinetics); type: binding; settings: for bond with CEA-V2122: conclusion from Table 1; for koff: immobilized CEA-V2122, 25° C., Bivalent Analyze mode curve fitting
# T1 construct: At the C-terminus a 6xHis tag; The expressed gene carries a pelB signal
# Excerpt: (§3) The data regarding the affinity of CEA-V2122 for Psyche B-iodine and for Psyche P-iodine were obtained in accordance with the description of Japanese Patent Application 2018-247363. Briefly stating, using an amine coupling kit (GE Healthcare Life Sciences), Sensor Chip CM5 (GE Healthcare Life Science) was set to be a target value that was 5000 RU, and the purified CEA-V2122 was immobilized. With regard to the concentration of the analyte, 5 types of two-fold serial dilutions from 1E-08 M to 6.25E-10 M were used. Biacore T200 (GE Healthcare Life Sciences) was used, the measurement temperature was set to be 25° C., and kinetics data were then obtained according to Single-Cycle Kinetics analysis. Using Biacore T200 Evaluation Software, version 2.0 (GE Healthcare Life Sciences), the obtained data were subjected to curve fitting in a Bivalent Analyze mode, and the evaluation value of each parameter was obtained. The dissociation constant KD is obtained according to Kd/Ka=KD.
# CEA-V2122 [3] = molecular target: T2, CEA-V2122 (Streptomyces avidinii, UniProt P22629, E125D/E140N/N47D/N73G/R108K/R127K/S51D/S69N/Y107S/Y46S); assay: as above; type: binding; settings: for kon: read-out: Ka
# T2 construct: At the C-terminus a 6xHis tag; The expressed gene carries a pelB signal
# Excerpt: as §3
# [4] = molecular target: T3, HER2 (ERBB2) on HER2-positive SKOV3 ovarian cancer cells (UniProt P04626 23-1255, limits assumed); assay: astatine-211-labeled Psyche B counted by gamma counter on SKOV3 cells pre-incubated with the fusion protein; CEA-V2122 as negative control
# T3 construct: whole, on cells
# Protocol: as §1
# as §2, with “0.875×10⁶” for “0.875×10^6”, “6. The measurement results were Herceptin-V2122-dependent, and it was confirmed that Psyche B-At212 bound to the SKOV3 cells via Herceptin-V2122.” for “6.”
# T2 sequence (P22629 whole entry E125D/E140N/N47D/N73G/R108K/R127K/S51D/S69N/Y107S/Y46S, looked up): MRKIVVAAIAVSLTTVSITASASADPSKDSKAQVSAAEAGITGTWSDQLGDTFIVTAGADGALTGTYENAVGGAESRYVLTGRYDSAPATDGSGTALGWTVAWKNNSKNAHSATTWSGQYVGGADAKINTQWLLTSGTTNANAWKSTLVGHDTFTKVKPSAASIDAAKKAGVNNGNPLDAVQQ
# T1 sequence (P22629 whole entry Y46S/N47D/S51D/S69N/N73G/Y107S/R108K/E125D/R127K/E140N, looked up): as the sequence (P22629 whole entry E125D/E140N/N47D/N73G/R108K/R127K/S51D/S69N/Y107S/Y46S, looked up) above
Molecule,"precipitation with Ni-NTA magnetic beads, radiation dose by gamma counter (Herceptin-V2122)","binding to SKOV3 cells, radiation dose by gamma counter [1]",bond with CEA-V2122 (CEA-V2122 [2]),koff (CEA-V2122 [2]) [s⁻¹],Kd (CEA-V2122 [3]) [nM],kon (CEA-V2122 [3]) [M⁻¹ s⁻¹],binding result [4]
"N=C1N[C@H]2[C@H](CS[C@H]2CCCCC(=O)NCCCCCC(=O)Nc2cc(NC(=O)CCCCCNC(=O)CCCC[C@@H]3SC[C@@H]4NC(=N)N[C@@H]43)cc(C(=O)NCCOCCOCCNC(=O)c3cccc([211At])c3)c2)N1.O=C(O)C(F)(F)F.O=C(O)C(F)(F)F [Psyche B-At211, (3aS,3a′S,4S,4′S,6aR,6a′R)-4,4′-(((((5-((2-(2-(2-(3-(Astato-^211At)benzamido)ethoxy)ethoxy)ethyl)carbamoyl)-1,3-phenylene)bis(azanediyl))bis(6-oxohexane-6,1-diyl))bis(azanediyl))bis(5-oxopentane-5,1-diyl))bis(tetrahydro-1H-thieno[3,4-d]imidazol-2(3H)-iminium) 2,2,2-trifluoroacetate]",precipitated in a Herceptin-V2122 presence-dependent manner,bound to the SKOV3 cells via Herceptin-V2122,,,,,
"N=C1N[C@H]2[C@H](CS[C@H]2CCCCC(=O)NCCCCCC(=O)Nc2cc(NC(=O)CCCCCNC(=O)CCCC[C@@H]3SC[C@@H]4NC(=N)N[C@@H]43)cc(C(=O)NCCOCCOCCNC(=O)c3cccc(I)c3)c2)N1 [Psyche B-iodine, (3aS,3a′S,4S,4′S,6aR,6a′R)-4,4′-(((((5-((2-(2-(2-(3-Iodobenzamido)ethoxy)ethoxy)ethyl)carbamoyl)-1,3-phenylene)bis(azanediyl))bis(6-oxohexane-6,1-diyl))bis(azanediyl))bis(5-oxopentane-5,1-diyl))bis(tetrahydro-1H-thieno[3,4-d]imidazol-2(3H)-iminium) 2,2,2-trifluoroacetate]",,,form a stable bond with CEA-V2122,6.4e-07,0.022,29000,
"N=C1N[C@H]2[C@H](CS[C@H]2CCCCCOCCCCNC(=O)CN(CCOCCOCCNC(=O)c2cccc(I)c2)CC(=O)NCCCCOCCCCC[C@@H]2SC[C@@H]3NC(=N)N[C@@H]32)N1 [Psyche P-iodine, 2,2′-((2-(2-(2-(3-Iodobenzamido)ethoxy)ethoxy)ethyl)azanediyl)bis(N-(4-((5-((3aS,4S,6aR)-2-iminohexahydro-1H-thieno[3,4-d]imidazol-4-yl)pentyl)oxy)butyl)acetamide) 2,2,2-trifluoroacetate]",,,form a stable bond with CEA-V2122,3.1e-05,4.5,6800,
"CEA-V2122 (scFv, Fusion of an anti-CEACAM5 scFv and mutant streptavidin V2122; also called scFv-V2122 (anti-CEACAM5)) scFv: QVKLEQSGAEVVKPGASVKLSCKASGFNIKDSYMHWLRQGPGQRLEWIGWIDPENGDTEYAPKFQGKATFTTDTSANTAYLGLSSLRPEDTAVYYCNEGTPTGPYYFDYWGQGTLVTVSSGGGGSGGGGSGGGGSENVLTQSPSSMSVSVGDRVNIACSASSSVPYMHWLQQKPGKSPKLLIYLTSNLASGVPSRFSGSGSGTDYSLTISSVQPEDAATYYCQQRSSYPLTFGGGTKLEIKGGGGSGGGGAEAGITGTWSDQLGDTFIVTAGADGALTGTYENAVGGAESRYVLTGRYDSAPATDGSGTALGWTVAWKNNSKNAHSATTWSGQYVGGADAKINTQWLLTSGTTNANAWKSTLVGHDTFTKVKPSAASHHHHHH",,,,,,,no binding
